Columns and labels:
Type in all cases: physicochemical
[1] = In vitro release of latanoprost from in situ polymerizable collagen gels into physiological saline (HPLC)
Method: Latanoprost (13,14-dihydro-17-phenyl-18,19,20-trinor-prostaglandin F2a-1-isopropyl ester) was obtained from Sigma-Aldrich. Soluble, pepsin digested, bovine collagen for drug delivery formulations was purchased from Advanced Biomatrix. In situ polymerizable collagen was prepared according to Example 1 by extensive dialysis of salt precipitated collagen against 0.035M EDTA with step-wise increase in pH to 7.5. Latanoprost was dissolved in 95% ethanol and added to polymerizable collagen solution to provide gel depots containing 250 μg latanoprost/100 μL collagen. The solutions were incubated in 1.0 mL of physiological saline at 37° C. The entire 1.0 mL volume was removed at time periods ranging from 1 day to 174 days and replaced with 1.0 mL of fresh saline. Latanoprost concentration in saline aliquots was measured by HPLC analysis (Millennium Research Laboratories).
In situ polymerizable collagen gels provided sustained in vitro release of Latanoprost for more than 30 days.

[2] = Short-term controlled release of lidocaine from collagen gel into 0.9% NaCl (HPLC); conditions: gel in 0.9% NaCl, 37° C., 80 RPM; FIG. 6
Method: One third of the same volume of collagen solution of a lidocaine sterile solution (0.9% Lidocaine, 7% Mannitol, 80 mM EDTA-2Na, 0.05M Na2CO3 and 0.05M NaHCO3) was added to collagen. 2 mL final mixed collagen solution was incubated under 37° C. to form a gel and put into 20 mL 37° C. 0.9% NaCl solution with a stir bar stirring at 80 RPM. At 10 min, 20 min, 30 min, 60 min, 90 min, and 120 min, 2 mL NaCl solution was collected to test lidocaine concentration and additional 2 mL 0.9% NaCl solution was replenished. HPLC method was used to measured lidocaine concentration and calculated to the percentage release of the lidocaine in collagen gel.

[3] = In vitro polymerization test of collagen/antibiotic compositions injected into WFI; conditions: 27-gauge needle
Method: 50 mg lyophilized and powdered (by mortar and pestle) Voriconazole was mixed with 200 μL of in situ polymerizable collagen solution prepared according to Example 1 by passing the powder into the collagen solution using two syringes attached with a female-female adaptor. The mixture appeared clear and transparent (FIG. 4A). Aliquots were injected into water for injection (WFI) using a 27-gauge needle. A control sample composed of in situ polymerizable collagen solution only was also injected into WFI.
Two other antibiotics, Cefuroxime and Vigamox, were mixed to in situ polymerizable collagen using the same method used for adding Voriconazole to the collagen to form a collagen/antibiotic composition, respectively. […] The appearance of the mixture depends on the solubility of the antibiotics.

[4] = In vitro release of Compstatin from in situ polymerizable collagen
Method: Delivery of a complement peptide-Compstatin from in situ polymerizable collagen prepared according to Example 1 was studied in vitro. In vitro release was measured for 6 weeks to ascertain the optimum collagen formulation.

[5] = Film formation of sprayed in situ polymerizable collagen on skin or skin wounds; conditions: EGF 5,000-20,000 IU/mL
Method: The sprayable in situ polymerizable collagen was prepared by mix in situ polymerizable collagen prepared in Example 1 with PBS at volume ratio of 2:1. After mixing by stirring at 50 rpm for 10 min, the gel was centrifuge to remove the bubbles. The sprayable in situ polymerizable collagen was less viscous with better flowability and placed in a spray bottle and still remained transparent under room temperature. […] The in situ polymerizable collagen solution with EGF was sprayed to skin wounds through spray bottle and formed a film to cover the wound within 120 sec, providing a wet healing environment and continuous EGF delivery to accelerate skin healing or improve skin condition.

CC(C)OC(=O)CCC/C=C\C[C@@H]1[C@@H](CC[C@@H](O)CCc2ccccc2)[C@H](O)C[C@@H]1O [Latanoprost, 13,14-dihydro-17-phenyl-18,19,20-trinor-prostaglandin F2a-1-isopropyl ester]
duration of sustained in vitro release of Latanoprost ([1]; in situ polymerizable collagen gels, saline 37° C.): more than 30 days | initial release of Latanoprost ([1]; polymerizable gels added directly to saline solution): large initial release | sustained release of Latanoprost, average ([1]; polymerizable gels added directly to saline solution, 250 μg latanoprost/100 μL collagen, 37° C.): 0.54 µg/day | initial release of Latanoprost ([1]; polymerizable gels partially pre-polymerized): reduced initial release | average sustained release rate of Latanoprost ([1]; polymerizable gels partially pre-polymerized before placing in solution, 250 μg latanoprost/100 μL collagen, 37° C.): 1.4 µg/day

CCN(CC)CC(=O)Nc1c(C)cccc1C [lidocaine]
controlled release of lidocaine [2]: within two hours

CO/N=C(\C(=O)N[C@@H]1C(=O)N2C(C(=O)O)=C(COC(N)=O)CS[C@H]12)c1ccco1 [Cefuroxime]
collagen fibril formation [3]: do not blocking the fibril formation

CC[C@H](C)[C@H](N)C(=O)N[C@H]1CSSC[C@@H](C(=O)N[C@H](C(N)=O)[C@@H](C)O)NC(=O)[C@H](CCCN=C(N)N)NC(=O)[C@H](Cc2cnc[nH]2)NC(=O)[C@H](Cc2cnc[nH]2)NC(=O)CNC(=O)[C@H](Cc2c[nH]c3ccccc23)NC(=O)[C@H](CC(=O)O)NC(=O)[C@H](CCC(N)=O)NC(=O)[C@H](C(C)C)NC(=O)[C@H](C(C)C)NC1=O [Compstatin]
duration of initial burst [4]: 4 days | duration of sustained release [4]: 6 weeks | release kinetics ([4]; measured for 6 weeks): bi-phasic release kinetics

EGF: Epidermal Growth Factor lyophilized powder dissolved in in situ polymerizable collagen solution, 5,000-20,000 IU/mL
time to form a film covering the wound [5]: ≤ 120 s
